Laboratory results published in EP0025288A1, “Derivatives of monic acid, processes for their preparation, compositions containing them and their preparation” (priority 1979, dated 1981).
≈ marks a conversion by molar mass, not a printed value.

Assays:
Bord bronchiseptica BO8 = test: MIC, veterinary bacteria; assay type: cell-based; settings: veterinary bacteria (Table 2), read-out: MIC
Past Haemolytica PA5 = test: MIC, veterinary bacteria; assay type: cell-based; settings: veterinary bacteria (Table 2), read-out: MIC
Strep agalactiae SPA1 = test: MIC, veterinary bacteria; assay type: cell-based; settings: veterinary bacteria (Table 2), read-out: MIC
M gallisepticum S6 = test: MIC, anti-mycoplasmal, serial dilution in Friis' agar; assay type: cell-based; settings: read-out: in vitro MIC, AGAR
Past multocida PA1 = test: MIC, veterinary bacteria; assay type: cell-based; settings: veterinary bacteria (Table 2), read-out: MIC
S dublin S7 = test: MIC, veterinary bacteria; assay type: cell-based; settings: veterinary bacteria (Table 2), read-out: MIC
Staph aureus Oxford = test: MIC, veterinary bacteria; assay type: cell-based; settings: Staphylococcus aureus, veterinary bacteria (Table 2), read-out: MIC
M alkalescens NCTC 10135 = test: MIC, anti-mycoplasmal, serial dilution in Friis' agar; assay type: cell-based; settings: read-out: in vitro MIC, AGAR
Past multocida PA2 = test: MIC, veterinary bacteria; assay type: cell-based; settings: veterinary bacteria (Table 2), read-out: MIC
M pneumoniae 427a [1] = test: MIC, anti-mycoplasmal, serial dilution in Friis' agar; assay type: cell-based; settings: read-out: in vitro MIC, AGAR
E coli NCTC 10418 = test: MIC, veterinary bacteria; assay type: cell-based; settings: veterinary bacteria (Table 2), read-out: MIC
Strep uberis SPU1 = test: MIC, veterinary bacteria; assay type: cell-based; settings: veterinary bacteria (Table 2), read-out: MIC
M dispar H225 = test: MIC, anti-mycoplasmal, Friis' broth microtiter method; assay type: cell-based; settings: read-out: in vitro MIC, BROTH
M pneumoniae 427a [2] = test: as above; assay type: cell-based; settings: read-out: in vitro MIC, BROTH
[3] = Serum binding by ultrafiltration; assay type: in vitro ADME, pig; settings: pig, serum, compounds at 8 mcg/ml, microbiological assay (B. subtilis ATCC 6633), read-out: % bound to pig serum (converted)
Procedure: Serum binding was assessed by ultrafiltration of procine serum containing compounds at 8 mcg/ml, and through an Amicon CF50A ultrafiltration cone. Separation of ultrafiltrate was achieved by centrifugation.

[4] = tested on: M bovigenitalium ATCC 14173; test: MIC, anti-mycoplasmal, serial dilution in Friis' agar; assay type: cell-based; settings: read-out: in vitro MIC, AGAR
Bord bronchisptica BO9 = test: MIC, veterinary bacteria; assay type: cell-based; settings: veterinary bacteria (Table 2), read-out: MIC
M dispar NCTC 10125 = test: MIC, anti-mycoplasmal, Friis' broth microtiter method; assay type: cell-based; settings: read-out: in vitro MIC, BROTH
M synoviae ATCC 25204 = test: MIC, anti-mycoplasmal, serial dilution in Friis' agar; assay type: cell-based; settings: read-out: in vitro MIC, AGAR
M pulmonis JB [5] = test: as above; assay type: cell-based; settings: read-out: in vitro MIC, AGAR
M hyosynoviae ATCC 25591 = test: as above; assay type: cell-based; settings: read-out: in vitro MIC, AGAR
[6] = tested on: Staph aureus 152 (pen sens); test: MIC, veterinary bacteria; assay type: cell-based; settings: Staphylococcus aureus, veterinary bacteria (Table 2), read-out: MIC
[7] = tested on: Erysipelothrix rhusiopathiae NCTC 8163; test: MIC, veterinary bacteria; assay type: cell-based; settings: NCTC8163, veterinary bacteria (Table 2), read-out: MIC
M pneumoniae ATCC 15492 [8] = test: MIC, anti-mycoplasmal, serial dilution in Friis' agar; assay type: cell-based; settings: read-out: in vitro MIC, AGAR
[9] = tested on: Staph aureus B4 (pen resis); test: MIC, veterinary bacteria; assay type: cell-based; settings: Staphylococcus aureus, veterinary bacteria (Table 2), read-out: MIC
Strep dysgalaciae SPD1 = test: MIC, veterinary bacteria; assay type: cell-based; settings: veterinary bacteria (Table 2), read-out: MIC
M fermentans MWKL4 [10] = test: MIC, anti-mycoplasmal, serial dilution in Friis' agar; assay type: cell-based; settings: read-out: in vitro MIC, AGAR
[11] = tested on: Corynebacterium pyogenes CY1; test: MIC, veterinary bacteria; assay type: cell-based; settings: veterinary bacteria (Table 2), read-out: MIC
M arthritidis ATCC 14124 = test: MIC, anti-mycoplasmal, serial dilution in Friis' agar; assay type: cell-based; settings: read-out: in vitro MIC, AGAR
E coli E1 = test: MIC, veterinary bacteria; assay type: cell-based; settings: veterinary bacteria (Table 2), read-out: MIC
M pneumoniae ATCC 15492 [12] = test: MIC, anti-mycoplasmal, Friis' broth microtiter method; assay type: cell-based; settings: read-out: in vitro MIC, BROTH
S typhimurium S18 = test: MIC, veterinary bacteria; assay type: cell-based; settings: veterinary bacteria (Table 2), read-out: MIC
[13] = tested on: M suipneumoniae J2206/183b; test: MIC, anti-mycoplasmal, Friis' broth microtiter method; assay type: cell-based; settings: read-out: in vitro MIC, BROTH
M pulmonis JB [14] = test: as above; assay type: cell-based; settings: read-out: in vitro MIC, BROTH
M hyorhinis ATCC 23234 = test: MIC, anti-mycoplasmal, serial dilution in Friis' agar; assay type: cell-based; settings: read-out: in vitro MIC, AGAR
M fermentans MWKL4 [15] = test: MIC, anti-mycoplasmal, Friis' broth microtiter method; assay type: cell-based; settings: read-out: in vitro MIC, BROTH
M suipneumoniae Str 11 = test: as above; assay type: cell-based; settings: read-out: in vitro MIC, BROTH
[16] = tested on: Strep suis (group D) SPS11; test: MIC, veterinary bacteria; assay type: cell-based; settings: veterinary bacteria (Table 2), read-out: MIC
M bovis ATCC 25025 = test: MIC, anti-mycoplasmal, serial dilution in Friis' agar; assay type: cell-based; settings: read-out: in vitro MIC, AGAR
M bovis NCTC 10131 = test: as above; assay type: cell-based; settings: read-out: in vitro MIC, AGAR

Row | Compound | MIC (Bord bronchiseptica BO8) [µg/mL] | MIC (Past Haemolytica PA5) [µg/mL] | MIC (Strep agalactiae SPA1) [µg/mL] | MIC (M gallisepticum S6) [µg/mL] | MIC (Past multocida PA1) [µg/mL] | MIC (S dublin S7) [µg/mL] | MIC (Staph aureus Oxford) [µg/mL] | MIC (M alkalescens NCTC 10135) [µg/mL] | MIC (Past multocida PA2) [µg/mL] | MIC (M pneumoniae 427a [1]) [µg/mL] | MIC (E coli NCTC 10418) [µg/mL] | MIC (Strep uberis SPU1) [µg/mL] | MIC (M dispar H225) [µg/mL] | MIC (M pneumoniae 427a [2]) [µg/mL] | fraction unbound [3] | MIC [4] [µg/mL] | MIC (Bord bronchisptica BO9) [µg/mL] | MIC (M dispar NCTC 10125) [µg/mL] | MIC (M synoviae ATCC 25204) [µg/mL] | MIC (M pulmonis JB [5]) [µg/mL] | further results
1 | CC(=O)COC(=O)C=C(C)CC1OCC(CC2OC2C(C)C(C)O)C(O)C1O (centres unmarked) [Example 1, Acetvlmethvl Monate A] | > 80 | 5 (≈ 12.5 µM) | 5 (≈ 12.5 µM) | > 10 | 0.625 (≈ 1.56 µM) | > 80 | 2.5 (≈ 6.24 µM) | 0.039 (≈ 0.0974 µM) | 0.312 (≈ 0.779 µM) | 10 (≈ 25 µM) | > 80 | 2.5 (≈ 6.24 µM) | 0.156 (≈ 0.39 µM) | > 10 | 0.772 | 0.078 (≈ 0.195 µM) | 40 (≈ 99.9 µM) | 0.156 (≈ 0.39 µM) | < 0.02 | 0.156 (≈ 0.39 µM) | MIC (M hyosynoviae ATCC 25591): 1.25 µg/mL (≈ 3.12 µM); MIC [6]: 2.5 µg/mL (≈ 6.24 µM); MIC [7]: > 80 µg/mL; MIC (M pneumoniae ATCC 15492 [8]): > 10 µg/mL; MIC [9]: 2.5 µg/mL (≈ 6.24 µM); MIC (Strep dysgalaciae SPD1): 5 µg/mL (≈ 12.5 µM); MIC (M fermentans MWKL4 [10]): 0.312 µg/mL (≈ 0.779 µM); MIC [11]: > 80 µg/mL; MIC (M arthritidis ATCC 14124): > 10 µg/mL; MIC (E coli E1): > 80 µg/mL; MIC (M pneumoniae ATCC 15492 [12]): > 10 µg/mL; MIC (S typhimurium S18): > 80 µg/mL; MIC [13]: 1.25 µg/mL (≈ 3.12 µM); MIC (M pulmonis JB [14]): 0.156 µg/mL (≈ 0.39 µM); MIC (M hyorhinis ATCC 23234): 2.5 µg/mL (≈ 6.24 µM); MIC (M fermentans MWKL4 [15]): 0.078 µg/mL (≈ 0.195 µM); MIC (M suipneumoniae Str 11): 0.625 µg/mL (≈ 1.56 µM); MIC [16]: 40 µg/mL (≈ 99.9 µM)
2 | CC(=O)CCCOC(=O)C=C(C)CC1OCC(CC2OC2C(C)C(C)O)C(O)C1O (centres unmarked) [Example 2, 3-Acetvlpropvl Monate A] | 40 (≈ 93.3 µM) | 5 (≈ 11.7 µM) | 2.5 (≈ 5.83 µM) | 2.5 (≈ 5.83 µM) | 0.312 (≈ 0.728 µM) | > 80 | 1.25 (≈ 2.92 µM) | < 0.02 | 0.039 (≈ 0.091 µM) | 0.312 (≈ 0.728 µM) | > 80 | 0.312 (≈ 0.728 µM) | ≤ 0.02 | 0.625 (≈ 1.46 µM) | 0.76 | ≤ 0.02 | 5 (≈ 11.7 µM) | ≤ 0.02 | < 0.02 | ≤ 0.02 | MIC (M bovis ATCC 25025): < 0.02 µg/mL; MIC (M hyosynoviae ATCC 25591): 0.078 µg/mL (≈ 0.182 µM); MIC [6]: 1.25 µg/mL (≈ 2.92 µM); MIC [7]: 80 µg/mL (≈ 187 µM); MIC (M pneumoniae ATCC 15492 [8]): 0.312 µg/mL (≈ 0.728 µM); MIC [9]: 1.25 µg/mL (≈ 2.92 µM); MIC (Strep dysgalaciae SPD1): 1.25 µg/mL (≈ 2.92 µM); MIC (M fermentans MWKL4 [10]): ≤ 0.02 µg/mL; MIC (M bovis NCTC 10131): < 0.02 µg/mL; MIC (M arthritidis ATCC 14124): 2.5 µg/mL (≈ 5.83 µM); MIC (E coli E1): > 80 µg/mL; MIC (M pneumoniae ATCC 15492 [12]): 0.312 µg/mL (≈ 0.728 µM); MIC (S typhimurium S18): > 80 µg/mL; MIC [13]: 0.312 µg/mL (≈ 0.728 µM); MIC (M pulmonis JB [14]): < 0.02 µg/mL; MIC (M hyorhinis ATCC 23234): 0.312 µg/mL (≈ 0.728 µM); MIC (M fermentans MWKL4 [15]): < 0.02 µg/mL; MIC (M suipneumoniae Str 11): 0.156 µg/mL (≈ 0.364 µM); MIC [16]: 10 µg/mL (≈ 23.3 µM)
